Test results reported in US20100197611A1, “ALTERNATIVE AGENT WITH VITAMIN D-LIKE ACTIVITY AND AN IMPROVING AGENT FOR INTESTINAL FUNCTION” (priority 2003, published 2010).

Key:
calbindin D9K = assay: Intestinal calbindin D9K expression in aged rats (Western blotting); format: in vivo; conditions: aged rats (9 month, male, SD-IGS), 1.9% by weight in feed for 10 days, compared to control group; FIG. 4
Text: On 10 days after the test started, rats were made starved by fasting for all day and night, then the small intestines were taken out, followed by extraction, immediate opening of the intestinal canal and stripping off the epitherial mucous membrane to prepare protein extract samples according to the method described by H. J. Armbrecht et al. (Am. J. Physiol., 236(6), e769-e774, 1979). These samples were separated by SDS-PAGE, followed by transferring on PVDF membrane (IPVH, pore size of 0.45, Millipore) in accordance with a usual procedure and assaying of calbindin D9K by the Western blotting method. Rabbit anti-calbindin D9K antibody (from Research Diagnostic Inc.) as the primary antibody and HRP anti-rabbit IgG (Bio-Rad) as the secondary antibody were used, and detected using ECL Plus kit (Bio-Rad). The detected protein bands were further quantified using Scion Image-analyzing software (from Scion Corp.).

CaT1 gene = CaT1 gene expression (mRNA, RT-PCR) in Caco-2 cells; format: cell-based; conditions: 72 hours, 1 mmol/L glucose 1-phosphate sodium salt or 10 nmol/L 1α,25-dihydroxyvitamin D, FIG. 3
Text: (§1) As a target cell of 1α,25-dihydroxyvitamin D and a sugar-phosphate ester, Caco-2 cells (from Dainippon Pharmaceutical Co. Ltd.) were employed. Caco-2 cells are known to differentiate to epitherial-like cells of small intestine. The Caco-2 cells were suspended in culture medium (10% fetal calf serum, none essential amino acids for MEM, […]/MEM Earle) and added to an insert of a fibrillar collagen culture plate (from Becton Dickinson Inc.). To the plate also, the culture medium was added, and cultured according to a usual method. The media in the insert and the plate were renewed at a regular interval, and the culture was subjected to a test at 15 days of incubation.

24-hydroxylase gene = 24-hydroxylase gene expression (mRNA, RT-PCR) in Caco-2 cells; format: cell-based; conditions: 72 hours, 1 mmol/L glucose 1-phosphate sodium salt or 10 nmol/L 1α,25-dihydroxyvitamin D, FIG. 2
Text: as §1

Molecule	expression of calbindin D9K in small intestine (calbindin D9K)	gene expression of CaT1 (mRNA amount divided by housekeeping gene G3PDH) (CaT1 gene)	gene expression of 24-hydroxylase (mRNA amount divided by housekeeping gene G3PDH) (24-hydroxylase gene)
O=P([O-])([O-])O[C@H]1O[C@H](CO)[C@@H](O)[C@H](O)[C@H]1O.[Na+].[Na+] [glucose 1-phosphate sodium salt]	significantly enhance	–	–
1α,25-dihydroxyvitamin D	–	significantly enhanced	significantly enhanced
